From patent publication US9771351B2, “Wnt signaling inhibitor” (KYOWA HAKKO KIRIN CO., LTD., priority 2013, dated 2017)
Like-named read-outs stand apart in the source and are kept apart here.

Columns and labels:
[1] = tested on: T-cell factor (TCF)-luciferase reporter using Wnt pathway as index; assay: Inhibitory activity against TCF-luciferase reporter using Wnt pathway as index (DLD-1/TCF-Luc cells); type: cell-based, human; settings: for inhibition at 1 µM: Homo sapiens, read-out: Inhibition ratio (%) at 1 μmol/L
Experimental: Test Example 1: Inhibitory Activity Against T-Cell Factor (TCF)-Luciferase Reporter Using Wnt Pathway as Index
The inhibitory activity of test compounds against Wnt pathway was evaluated by the following method.
A human colorectal adenocarcinoma cell line DLD-1 (Japanese Collection of Research Bioresources) was cultured in RPMI-1640 medium (Gibco/Life Technologies, Inc.) containing 10% fetal bovine serum (Gibco/Life Technologies, Inc.), 10 mmol/L of a 4-(2-hydroxyethyl)-1-piperazineethanesulfonic acid (HEPES) buffer solution (Gibco/Life Technologies, Inc.), 1 mmol/L of a sodium pyruvate solution (Gibco/Life Technologies, Inc.), 4.5 g/L of a D-(+)-glucose solution (Sigma-Aldrich, Inc.), 100 units/mL penicillin (Gibco/Life Technologies, Inc.) and 100 μg/mL of streptomycin (Gibco/Life Technologies, Inc.) under the conditions of 37° C. and 5% carbon dioxide gas. The DLD-1 cells were seeded in a 10 cm dish, and 20 μg of a luciferase gene plasmid pGL4.27 having a TCF responsive sequence inserted therein was transfected into the cells using 10 μL of Attractene (Qiagen, Inc.) according to the protocol attached to the product. A stably expressing cell line (DLD-1/TCF-Luc) was selected using […] of hygromycin B (Wako Pure Chemical Industries Ltd.). The DLD-1/TCF-Luc cells were detached with trypsin and seeded in a 384-well plate, and a test compound was added at different concentrations. After 18 hours, the luciferase activity was measured using Steady-Glo™ Luciferase Assay System (Promega, Inc.).
The inhibition ratio was obtained according to the following formula 1. The inhibition ratio (%) of the compound of the present invention at 1 μmol/L against the TCF-luciferase reporter using the Wnt pathway as an index is shown in Table 6. [Math. 1] Inhibition ratio (%)=100−{(luciferase activity when test compound was added)−(luciferase activity of blank)}/{(luciferase activity of control)−(luciferase activity of blank)}×100 Formula 1

[2] = target: T1, tankyrase-2 (Homo sapiens, UniProt Q9H2K2); assay: Tankyrase-2 enzyme inhibition test (Tankyrase-2 Chemiluminescent Assay Kit); type: biochemical; settings: autoribosylation of GST-tankyrase-2 fusion protein, chemiluminescence
T1 construct: purchased BPS Bioscience, Inc. 80566
T1 sequence (Q9H2K2 1-1166): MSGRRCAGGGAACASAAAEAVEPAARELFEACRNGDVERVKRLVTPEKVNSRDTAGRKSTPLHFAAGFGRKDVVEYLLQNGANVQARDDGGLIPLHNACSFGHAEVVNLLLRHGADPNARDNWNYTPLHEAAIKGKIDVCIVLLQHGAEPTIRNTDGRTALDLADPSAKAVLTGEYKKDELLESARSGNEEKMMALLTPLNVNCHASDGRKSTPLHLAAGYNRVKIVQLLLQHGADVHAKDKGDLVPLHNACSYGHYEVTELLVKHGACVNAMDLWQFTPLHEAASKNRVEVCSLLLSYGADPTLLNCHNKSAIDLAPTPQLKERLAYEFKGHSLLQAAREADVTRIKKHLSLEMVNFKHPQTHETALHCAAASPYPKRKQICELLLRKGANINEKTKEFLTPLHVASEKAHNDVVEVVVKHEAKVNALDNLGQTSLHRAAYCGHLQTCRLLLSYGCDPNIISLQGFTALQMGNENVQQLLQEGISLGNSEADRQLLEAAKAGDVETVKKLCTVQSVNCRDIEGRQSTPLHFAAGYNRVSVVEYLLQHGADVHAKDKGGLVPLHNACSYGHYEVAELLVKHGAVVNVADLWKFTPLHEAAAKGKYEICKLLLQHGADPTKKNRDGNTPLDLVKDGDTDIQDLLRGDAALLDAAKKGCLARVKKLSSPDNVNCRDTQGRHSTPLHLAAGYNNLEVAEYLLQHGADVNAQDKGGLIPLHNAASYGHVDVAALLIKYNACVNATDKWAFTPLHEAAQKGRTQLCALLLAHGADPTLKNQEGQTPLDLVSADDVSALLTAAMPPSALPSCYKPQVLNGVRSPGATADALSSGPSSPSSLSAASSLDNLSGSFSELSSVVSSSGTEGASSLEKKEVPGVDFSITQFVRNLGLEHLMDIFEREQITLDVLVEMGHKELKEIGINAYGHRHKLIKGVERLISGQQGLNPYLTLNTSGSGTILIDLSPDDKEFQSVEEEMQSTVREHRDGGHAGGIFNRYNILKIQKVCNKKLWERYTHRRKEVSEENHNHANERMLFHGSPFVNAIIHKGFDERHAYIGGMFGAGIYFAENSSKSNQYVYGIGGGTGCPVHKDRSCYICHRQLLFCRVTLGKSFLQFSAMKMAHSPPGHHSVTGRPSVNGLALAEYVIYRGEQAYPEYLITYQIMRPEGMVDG
Experimental: Test Example 2: Tankyrase-2 Enzyme Inhibition Test
The enzyme activity of tankyrase-2 was evaluated using Tankyrase-2 Chemiluminescent Assay Kit (BPS Bioscience, Inc., Catalog No. 80566). The Tankyrase-2 Chemiluminescent Assay Kit is a kit for evaluating the enzyme activity of tankyrase-2 using autoribosylation of glutathione-S-transferase (GST)-tankyrase-2 fusion protein as an index. All the experimental materials except for PBS (PBST) buffer containing phosphate-buffered saline (PBS) and 0.05% Tween 20 are all included in the kit. The GST-tankyrase-2 enzyme diluted with 50 μL of 1× tankyrase buffer was added to the wells of a 96-well plate coated with glutathione. After the plate was left to stand overnight at 4° C., the plate was washed 3 times with the PBST buffer. 150 μL of blocking buffer was added thereto, and the plate was left to stand at room temperature for 30 minutes to block the wells. The plate was washed 3 times with the PBST buffer. Before the ribosylation reaction, an assay mixture containing a biotinylated substrate and a test compound diluted with 1× tankyrase buffer were mixed, whereby a reaction mixture was prepared. In order to start the ribosylation reaction, 50 μL of the reaction mixture was added to the wells. In a blank well, 1× tankyrase buffer was added in place of the reaction mixture containing a biotinylated substrate. The plate was left to stand at 30° C. for 1 hour. After the reaction, the plate was washed 3 times with the PBST buffer. Streptavidin-horseradish peroxidase (HRP) was diluted to 50-fold with the blocking buffer. The diluted streptavidin-HRP was added to the wells, and the plate was left to stand at room temperature for 30 minutes. The plate was washed 3 times with the PBST buffer. Immediately before use, 50 μL of the HRP chemiluminescent substrate A and 50 μL of the HRP chemiluminescent substrate B were mixed and 100 μL of the resulting mixture was added to the wells. The chemiluminescence was measured using a chemiluminescence measuring apparatus. The inhibition ratio was obtained according to the following formula 2. [Math. 2] Inhibition ratio (%)=100−{(chemiluminescence intensity when test compound was added)−(chemiluminescence intensity of blank)}/{(chemiluminescence intensity of control)−(chemiluminescence intensity of blank)}×100 Formula 2

[3] = 1 μmol/L, DLD-1/TCF-Luc cells, luciferase activity after 18 hours

SMILES	inhibition at 1 µM [1, 3] [%]	inhibition at 1 µM ([1]; DLD-1, 18 h) [%]	also measured
COc1cc2ncnc(N3CCC(CN4Cc5ccccc5N(Cc5ccccc5C(N)=O)C4=O)CC3)c2cc1OC [Compound 1, 2-[(3-{[1-(6,7-Dimethoxyquinazolin-4-yl)piperidin-4-yl]methyl}-2-oxo-3,4-dihydroquinazolin-1(2H)-yl)methyl]benzamide]	88		Inhibition ratio (%) at 1 μmol/L [2]: 91%
COc1cc2ncnc(N3CCC(CN4Cc5ccccc5N(CC5CCCO5)C4=O)CC3)c2cc1OC (stereo not shown) [Compound 2, 3-{[1-(6,7-Dimethoxyquinazolin-4-yl)piperidin-4-yl]methyl}-1-[(tetrahydrofuran-2-yl)methyl]-3,4-dihydroquinazolin-2(1H)-one]	87		Inhibition ratio (%) at 1 μmol/L [2]: 91%
COc1cc2ncnc(N3CCC(CN4Cc5cc(S(C)(=O)=O)ccc5N(Cc5ccccc5C#N)C4=O)CC3)c2cc1OC [Compound 5, 2-[(3-{[1-(6,7-Dimethoxyquinazolin-4-yl)piperidin-4-yl]methyl}-6-(methylsulfonyl)-2-oxo-3,4-dihydroquinazolin-1(2H)-yl)methyl]benzonitrile]	84		Inhibition ratio (%) at 1 μmol/L [2]: 94%
COc1cc2ncnc(N3CCC(CN4Cc5ccccc5N(c5ccc(F)c(C#N)c5)C4=O)CC3)c2cc1OC [Compound 7, 5-(3-{[1-(6,7-Dimethoxyquinazolin-4-yl)piperidin-4-yl]methyl}-2-oxo-3,4-dihydroquinazolin-1(2H)-yl)-2-fluorobenzonitrile]	76		Inhibition ratio (%) at 1 μmol/L [2]: 95%
CN1CCN(C(=O)c2ccc3c(N4CCC(CN5Cc6ccccc6N(c6ccnc(C#N)c6)C5=O)CC4)ncnc3c2)CC1 [Compound 27, 4-[3-({1-[7-(4-Methylpiperazine-1-carbonyl)quinazolin-4-yl]piperidin-4-yl}methyl)-2-oxo-3,4-dihydroquinazolin-1(2H)-yl]picolinonitrile]		88	
N#Cc1cc(N2C(=O)N(CC3CCN(c4ncnc5cc(C(N)=O)ccc45)CC3)Cc3ccccc32)ccn1 [Compound 28, 4-(4-{[1-(2-Cyanopyridin-4-yl)-2-oxo-1,2-dihydroquinazolin-3(4H)-yl]methyl}piperidin-1-yl)quinazoline-7-carboxamido]			Inhibition ratio (%) at 1 μmol/L [1, 3]: 84%
N#Cc1cc(N2C(=O)N(CC3CCN(c4ncnc5[nH]ccc45)CC3)Cc3ccccc32)ccn1 [Compound 31, 4-(3-{[1-(7H-pyrrolo[2,3-d]pyrimidin-4-yl)piperidin-4-yl]methyl}-2-oxo-3,4-dihydroquinazolin-1(2H)-yl)picolinonitrile]		74	
N#Cc1cc(N2C(=O)N(CC3CCN(c4nccn5c(=O)[nH]nc45)CC3)Cc3ccccc32)ccn1 [Compound 39, 4-(2-Oxo-3-{[1-(3-oxo-2,3-dihydro-[1,2,4]triazolo[4,3-a]pyrazin-8-yl)piperidin-4-yl]methyl}-3,4-dihydroquinazolin-1(2H)-yl)picolinonitrile]		89	
N#Cc1cc(N2C(=O)N(CC3CCN(c4nccc5c(=O)[nH]cnc45)CC3)Cc3ccccc32)ccn1 [Compound 42, 4-(2-Oxo-3-{[1-(4-oxo-3,4-dihydropyrido[3,4-d]pyrimidin-8-yl)piperidin-4-yl]methyl}-3,4-dihydroquinazolin-1(2H)-yl)picolinonitrile]		81	
N#Cc1cccc(N2C(=O)N(CC3CCN(c4ncnc5c4COCC5)CC3)Cc3ccccc32)c1 [Compound 43, 3-(3-{[1-(7,8-Dihydro-5H-pyrano[4,3-d]pyrimidin-4-yl)piperidin-4-yl]methyl}-2-oxo-3,4-dihydroquinazolin-1(2H)-yl)benzonitrile]		85	
N#Cc1cc(N2C(=O)N(CC3CCN(c4ncnc5cnc(C(N)=O)cc45)CC3)Cc3ccccc32)ccc1F [Compound 45, 4-(4-{[1-(3-Cyano-4-fluorophenyl)-2-oxo-1,2-dihydroquinazolin-3(4H)-yl]methyl}piperidin-1-yl)pyrido[3,4-d]pyrimidine-6-carboxamido]			Inhibition ratio (%) at 1 μmol/L [1, 3]: 86%
N#Cc1cc(N2C(=O)N(CC3CCN(c4ncnc5cnc(C(N)=O)cc45)CC3)Cc3ncccc32)ccc1F [Compound 46, 4-(4-{[1-(3-Cyano-4-fluorophenyl)-2-oxo-1,2-dihydropyrido[3,2-d]pyrimidin-3(4H)-yl]methyl}piperidin-1-yl)pyrido[3,4-d]pyrimidine-6-carboxamido]			Inhibition ratio (%) at 1 μmol/L [1, 3]: 84%
N#Cc1cc(N2C(=O)N(CC3CCN(c4nccc5nc[nH]c(=O)c45)CC3)Cc3cc(F)ccc32)ccn1 [Compound 49, 4-(6-Fluoro-2-oxo-3-{[1-(4-oxo-3,4-dihydropyrido[4,3-d]pyrimidin-5-yl)piperidin-4-yl]methyl}-3,4-dihydroquinazolin-1(2H)-yl)picolinonitrile]	82		
N#Cc1ccc2c(c1)CN(CC1CCN(c3nccc4nc[nH]c(=O)c34)CC1)C(=O)N2c1ccnc(C(N)=O)c1 [Compound 51, 4-(6-Cyano-2-oxo-3-{[1-(4-oxo-3,4-dihydropyrido[4,3-d]pyrimidin-5-yl)piperidin-4-yl]methyl}-3,4-dihydroquinazolin-1(2H)-yl)picolinamide]	90		
N#Cc1cc(N2C(=O)N(CC3CCN(c4ncnc5cc(C(N)=O)ncc45)CC3)Cc3cnccc32)ccc1F [Compound 52, 4-(4-{[1-(3-Cyano-4-fluorophenyl)-2-oxo-1,2-dihydropyrido[4,3-d]pyrimidin-3(4H)-yl]methyl}piperidin-1-yl)pyrido[4,3-d]pyrimidine-7-carboxamido]	81		
